Test results as given in the CheMixHub ionic liquid set.
± gives the uncertainty stated by the source.

Test: xn = mol fraction of the nth substance listed
Settings: 308.15 K, 101 kPa

CCCCCCCCCCCCCCCC[n+]1ccccc1.[Cl-] + C[C@@H](O)[C@H](N)C(=O)O + O
Settings	electrical conductivity [S/m]
x2 = 0, x1 = 5.4e-07	0.000222 ± 2e-06
x2 = 0, x1 = 9e-07	0.00029 ± 3e-06
x2 = 0, x1 = 1.62e-06	0.0004 ± 4e-06
x2 = 0, x1 = 2.34e-06	0.000465 ± 5e-06
x2 = 0, x1 = 2.88e-06	0.000581 ± 6e-06
x2 = 0, x1 = 3.78e-06	0.000705 ± 7e-06
x2 = 0, x1 = 4.5e-06	0.000794 ± 8e-06
x2 = 0, x1 = 5.59e-06	0.000937 ± 9e-06
x2 = 0, x1 = 6.85e-06	0.00106 ± 1.1e-05
x2 = 0, x1 = 7.93e-06	0.001222 ± 1.2e-05
x2 = 0, x1 = 9.01e-06	0.001438 ± 1.4e-05
x2 = 0, x1 = 1.009e-05	0.00159 ± 1.6e-05
x2 = 0, x1 = 1.117e-05	0.001701 ± 1.7e-05
x2 = 0, x1 = 1.442e-05	0.00209 ± 2.1e-05
x2 = 0, x1 = 1.55e-05	0.00219 ± 2.2e-05
x2 = 0, x1 = 1.766e-05	0.00237 ± 2.4e-05
x2 = 0, x1 = 1.982e-05	0.00248 ± 2.5e-05
x2 = 0, x1 = 2.18e-05	0.00259 ± 2.6e-05
x2 = 0, x1 = 2.397e-05	0.00264 ± 2.6e-05
x2 = 0, x1 = 2.595e-05	0.00278 ± 2.8e-05
x2 = 0, x1 = 2.991e-05	0.00297 ± 3e-05
x2 = 0, x1 = 3.406e-05	0.00314 ± 3.1e-05
x2 = 0, x1 = 3.784e-05	0.00328 ± 3.3e-05
x2 = 0, x1 = 4.162e-05	0.00342 ± 3.4e-05
x2 = 0, x1 = 4.541e-05	0.00356 ± 3.6e-05
x2 = 0, x1 = 4.919e-05	0.00369 ± 3.7e-05
x2 = 0, x1 = 5.099e-05	0.00375 ± 3.8e-05
x2 = 0, x1 = 5.982e-05	0.00403 ± 4e-05
x2 = 0, x1 = 6.829e-05	0.00432 ± 4.3e-05
x2 = 0, x1 = 7.64e-05	0.00454 ± 4.5e-05
x2 = 0, x1 = 8.415e-05	0.00477 ± 4.8e-05
x2 = 0, x1 = 9.171e-05	0.00497 ± 5e-05
x2 = 0, x1 = 9.892e-05	0.00516 ± 5.2e-05
x2 = 0, x1 = 0.0001058	0.00533 ± 5.3e-05
x2 = 0, x1 = 0.0001124	0.0055 ± 5.5e-05
x2 = 0, x1 = 0.0001189	0.00565 ± 5.7e-05
x2 = 2.018e-05, x1 = 5.4e-07	0.000282 ± 3e-06
x2 = 2.018e-05, x1 = 9e-07	0.00035 ± 4e-06
x2 = 2.018e-05, x1 = 1.62e-06	0.000431 ± 4e-06
x2 = 2.018e-05, x1 = 2.34e-06	0.000514 ± 5e-06
x2 = 2.018e-05, x1 = 2.88e-06	0.000652 ± 7e-06
x2 = 2.018e-05, x1 = 3.78e-06	0.000768 ± 8e-06
x2 = 2.018e-05, x1 = 4.51e-06	0.00084 ± 8e-06
x2 = 2.018e-05, x1 = 5.59e-06	0.001003 ± 1e-05
x2 = 2.018e-05, x1 = 6.67e-06	0.00115 ± 1.2e-05
x2 = 2.018e-05, x1 = 7.93e-06	0.00127 ± 1.3e-05
x2 = 2.018e-05, x1 = 9.01e-06	0.00139 ± 1.4e-05
x2 = 2.018e-05, x1 = 1.009e-05	0.001517 ± 1.5e-05
x2 = 2.018e-05, x1 = 1.117e-05	0.00165 ± 1.7e-05
x2 = 2.018e-05, x1 = 1.334e-05	0.00188 ± 1.9e-05
x2 = 2.018e-05, x1 = 1.55e-05	0.00214 ± 2.1e-05
x2 = 2.018e-05, x1 = 1.766e-05	0.0023 ± 2.3e-05
x2 = 2.018e-05, x1 = 1.964e-05	0.00249 ± 2.5e-05
x2 = 2.018e-05, x1 = 2.181e-05	0.00259 ± 2.6e-05
x2 = 2.018e-05, x1 = 2.379e-05	0.00271 ± 2.7e-05
x2 = 2.018e-05, x1 = 2.595e-05	0.00282 ± 2.8e-05
x2 = 2.018e-05, x1 = 2.992e-05	0.00299 ± 3e-05
x2 = 2.018e-05, x1 = 3.388e-05	0.00317 ± 3.2e-05
x2 = 2.018e-05, x1 = 3.766e-05	0.00332 ± 3.3e-05
x2 = 2.018e-05, x1 = 4.163e-05	0.00348 ± 3.5e-05
x2 = 2.018e-05, x1 = 4.523e-05	0.00361 ± 3.6e-05
x2 = 2.018e-05, x1 = 4.902e-05	0.00375 ± 3.8e-05
x2 = 2.018e-05, x1 = 5.082e-05	0.00383 ± 3.8e-05
x2 = 2.018e-05, x1 = 5.965e-05	0.00411 ± 4.1e-05
x2 = 2.018e-05, x1 = 6.812e-05	0.00438 ± 4.4e-05
x2 = 2.018e-05, x1 = 7.623e-05	0.0046 ± 4.6e-05
x2 = 2.018e-05, x1 = 8.398e-05	0.00483 ± 4.8e-05
x2 = 2.018e-05, x1 = 9.136e-05	0.00502 ± 5e-05
x2 = 2.018e-05, x1 = 9.857e-05	0.0052 ± 5.2e-05
x2 = 2.018e-05, x1 = 0.0001054	0.00538 ± 5.4e-05
x2 = 2.018e-05, x1 = 0.0001121	0.00553 ± 5.5e-05
x2 = 2.018e-05, x1 = 0.0001186	0.00568 ± 5.7e-05
x2 = 0.0002, x1 = 5.4e-07	0.000209 ± 2e-06
x2 = 0.0002, x1 = 9e-07	0.000279 ± 3e-06
x2 = 0.0002, x1 = 1.62e-06	0.000384 ± 4e-06
x2 = 0.0002, x1 = 2.35e-06	0.000481 ± 5e-06
x2 = 0.0002, x1 = 2.89e-06	0.000615 ± 6e-06
x2 = 0.0002, x1 = 3.79e-06	0.000744 ± 7e-06
x2 = 0.0002, x1 = 4.51e-06	0.000835 ± 8e-06
x2 = 0.0002, x1 = 5.59e-06	0.000986 ± 1e-05
x2 = 0.0002, x1 = 6.67e-06	0.001137 ± 1.1e-05
x2 = 0.0002, x1 = 7.94e-06	0.00127 ± 1.3e-05
x2 = 0.0002, x1 = 9.02e-06	0.001403 ± 1.4e-05
x2 = 0.0002, x1 = 1.01e-05	0.00155 ± 1.6e-05
x2 = 0.0002, x1 = 1.118e-05	0.00168 ± 1.7e-05
x2 = 0.0002, x1 = 1.335e-05	0.00196 ± 2e-05
x2 = 0.0002, x1 = 1.551e-05	0.00219 ± 2.2e-05
x2 = 0.0002, x1 = 1.75e-05	0.00237 ± 2.4e-05
x2 = 0.0002, x1 = 1.966e-05	0.00251 ± 2.5e-05
x2 = 0.0002, x1 = 2.183e-05	0.00264 ± 2.6e-05
x2 = 0.0002, x1 = 2.381e-05	0.00275 ± 2.8e-05
x2 = 0.0002, x1 = 2.58e-05	0.00286 ± 2.9e-05
x2 = 0.0002, x1 = 2.995e-05	0.00304 ± 3e-05
x2 = 0.0002, x1 = 3.391e-05	0.00321 ± 3.2e-05
x2 = 0.0002, x1 = 3.77e-05	0.00335 ± 3.4e-05
x2 = 0.0002, x1 = 4.149e-05	0.0035 ± 3.5e-05
x2 = 0.0002, x1 = 4.528e-05	0.00364 ± 3.6e-05
x2 = 0.0002, x1 = 4.889e-05	0.00376 ± 3.8e-05
x2 = 0.0002, x1 = 5.069e-05	0.00382 ± 3.8e-05
x2 = 0.0002, x1 = 5.953e-05	0.0041 ± 4.1e-05
x2 = 0.0002, x1 = 6.801e-05	0.00437 ± 4.4e-05
x2 = 0.0002, x1 = 7.612e-05	0.00458 ± 4.6e-05
x2 = 0.0002, x1 = 8.388e-05	0.00481 ± 4.8e-05
x2 = 0.0002, x1 = 9.146e-05	0.00499 ± 5e-05
x2 = 0.0002, x1 = 9.849e-05	0.00517 ± 5.2e-05
x2 = 0.0002, x1 = 0.0001055	0.00533 ± 5.3e-05
x2 = 0.0002, x1 = 0.000112	0.0055 ± 5.5e-05
x2 = 0.0002, x1 = 0.0001185	0.00565 ± 5.7e-05
x2 = 0.0009181, x1 = 2.391e-05	0.00276 ± 2.8e-05
x2 = 0.0009181, x1 = 2.608e-05	0.00285 ± 2.9e-05
x2 = 0.0009181, x1 = 3.007e-05	0.00304 ± 3e-05
x2 = 0.0009181, x1 = 3.405e-05	0.0032 ± 3.2e-05
x2 = 0.0009181, x1 = 3.804e-05	0.00337 ± 3.4e-05
x2 = 0.0009181, x1 = 4.184e-05	0.00351 ± 3.5e-05
x2 = 0.0009181, x1 = 4.564e-05	0.00365 ± 3.7e-05
x2 = 0.0009181, x1 = 4.926e-05	0.00379 ± 3.8e-05
x2 = 0.0009181, x1 = 5.108e-05	0.00385 ± 3.9e-05
x2 = 0.0009181, x1 = 5.995e-05	0.00413 ± 4.1e-05
x2 = 0.0009181, x1 = 6.846e-05	0.00439 ± 4.4e-05
x2 = 0.0009181, x1 = 7.661e-05	0.00463 ± 4.6e-05
x2 = 0.0009181, x1 = 8.44e-05	0.00485 ± 4.9e-05
x2 = 0.0009181, x1 = 9.2e-05	0.00505 ± 5.1e-05
x2 = 0.0009181, x1 = 9.907e-05	0.00523 ± 5.2e-05
x2 = 0.0009181, x1 = 0.0001061	0.0054 ± 5.4e-05
x2 = 0.0009181, x1 = 0.0001128	0.00556 ± 5.6e-05
x2 = 0.0009181, x1 = 0.0001192	0.00571 ± 5.7e-05
x2 = 0.0009182, x1 = 5.4e-07	0.000316 ± 3e-06
x2 = 0.0009182, x1 = 9.1e-07	0.000383 ± 4e-06
x2 = 0.0009182, x1 = 1.63e-06	0.00045 ± 5e-06
x2 = 0.0009182, x1 = 2.35e-06	0.000543 ± 5e-06
x2 = 0.0009182, x1 = 2.9e-06	0.000651 ± 7e-06
x2 = 0.0009182, x1 = 3.8e-06	0.000745 ± 7e-06
x2 = 0.0009182, x1 = 4.53e-06	0.000847 ± 8e-06
x2 = 0.0009182, x1 = 5.61e-06	0.00102 ± 1e-05
x2 = 0.0009182, x1 = 6.88e-06	0.001307 ± 1.3e-05
x2 = 0.0009182, x1 = 7.97e-06	0.001432 ± 1.4e-05
x2 = 0.0009182, x1 = 9.06e-06	0.00156 ± 1.6e-05
x2 = 0.0009182, x1 = 1.014e-05	0.00169 ± 1.7e-05
x2 = 0.0009182, x1 = 1.123e-05	0.001816 ± 1.8e-05
x2 = 0.0009182, x1 = 1.34e-05	0.00202 ± 2e-05
x2 = 0.0009182, x1 = 1.558e-05	0.00226 ± 2.3e-05
x2 = 0.0009182, x1 = 1.775e-05	0.0024 ± 2.4e-05
x2 = 0.0009182, x1 = 1.974e-05	0.00254 ± 2.5e-05
x2 = 0.0009182, x1 = 2.192e-05	0.00266 ± 2.7e-05
